Laboratory results from ChEMBL document CHEMBL4699516, “S-Bridged Thioether and Structure-Diversified Angucyclinone Derivatives from the South China Sea-Derived Micromonospora echinospora SCSIO 04089” (J Nat Prod, 2020).
Converted amounts (≈) assume the structure as drawn.

Key:
[1] = system: SF-268; assay: Cytotoxicity against human SF-268 cells assessed as reduction in cell viability after 72 hrs by SRB assay; assay type: functional, cell-based; conditions: SF-268, 72 h
[2] = system: MCF7; assay: Cytotoxicity against human MCF7 cells assessed as reduction in cell viability after 72 hrs by SRB assay; assay type: functional, cell-based; conditions: MCF7, 72 h
[3] = system: HepG2; assay: Cytotoxicity against human HepG2 cells assessed as reduction in cell viability after 72 hrs by SRB assay; assay type: functional, cell-based; conditions: HepG2, 72 h
[4] = system: Staphylococcus aureus; assay: Antibacterial activity against Staphylococcus aureus ATCC 29213 assessed as reduction in bacterial growth after 16 hrs by broth microdilution method; assay type: functional
[5] = system: Bacillus thuringiensis; assay: Antibacterial activity against Bacillus thuringiensis SCSIO BT01 assessed as reduction in bacterial growth after 16 hrs by broth microdilution method; assay type: functional
[6] = system: Micrococcus luteus; assay: Antibacterial activity against Micrococcus luteus SCSIO ML01 assessed as reduction in bacterial growth after 16 hrs by broth microdilution method; assay type: functional
[7] = system: Bacillus subtilis; assay: Antibacterial activity against […] 1064 assessed as reduction in bacterial growth after 16 hrs by broth microdilution method; assay type: functional
[8] = system: Staphylococcus aureus; assay: Antibacterial activity against methicillin-resistant Staphylococcus aureus shhs-A1 assessed as reduction in bacterial growth after 16 hrs by broth microdilution method; assay type: functional

| SMILES | IC50 [1] [µM] | IC50 [2] [µM] | IC50 [3] [µM] | MIC [4] [µg/mL] | MIC [5] [µg/mL] | MIC [6] [µg/mL] | MIC [7] [µg/mL] | MIC [8] [µg/mL] |
| --- | --- | --- | --- | --- | --- | --- | --- | --- |
| CCc1cc(O)c(C2=C(O)C(=O)c3c(O)cccc3C2=O)c(C(=O)OC)c1 | > 100 | > 100 | > 100 | > 64 | > 64 | > 64 | > 64 | > 64 |
| CC[C@]12CC(=O)[C@@]3(O)[C@](O)(CC(O)=C4C(=O)c5c(O)cccc5C(=O)[C@@]43S1)C2 | > 100 | > 100 | > 100 | > 64 | > 64 | > 64 | > 64 | > 64 |
| CCc1cc(O)c2c(c1C(C)=O)C(=O)c1cccc(O)c1C2=O | 7.6 | 10.4 | 8.1 | > 64 | > 64 | > 64 | > 64 | > 64 |
| CCc1cc(O)c2c3c(ncc2c1)C(=O)c1c(O)cccc1C3=O | 5.4 | 6.8 | 1.4 | 2 (≈ 6.26 µM) | 4 (≈ 12.5 µM) | 4 (≈ 12.5 µM) | 4 (≈ 12.5 µM) | 2 (≈ 6.26 µM) |
| CCc1cc(O)c2c(c1)C(SC[C@H](NC(C)=O)C(=O)O)=C1C(=O)c3c(O)cccc3C(O)=C12 | > 100 | > 100 | > 100 | > 64 | > 64 | > 64 | > 64 | > 64 |
| CCc1cc(O)c2c3c([nH]c(=O)c2c1)C(=O)c1c(O)cccc1C3=O | 18 | 52 | 4 | 64 (≈ 191 µM) | > 64 | > 64 | > 64 | 64 (≈ 191 µM) |
| CCc1cc(O)c2c3c(c(O)cc2c1)C(=O)c1c(O)cccc1C3=O | 16.9 | 14.9 | 25.3 | 4 (≈ 12 µM) | > 64 | 8 (≈ 23.9 µM) | > 64 | > 64 |
| CCc1cc(C(=O)O)c2c3c(oc2c1)C(=O)c1c(O)cccc1C3=O | > 100 | > 100 | > 100 | > 64 | > 64 | > 64 | > 64 | > 64 |
| CC[C@]1(O)CC(=O)c2c(cc(O)c3c2C(=O)c2cccc(O)c2C3=O)C1 | 9 | 12.5 | 10.3 | > 64 | > 64 | > 64 | > 64 | > 64 |
| CCc1cc(O)c2c(c1)C(N)=C1C(=O)c3c(O)cccc3C(=O)C12CC(C)=O (racemic) | > 100 | > 100 | > 100 | > 64 | > 64 | > 64 | > 64 | > 64 |
| Cc1cn([C@H]2C[C@H](O)[C@@H](COP(=O)(O)O)O2)c(=O)[nH]c1=O [THYMIDINE MONOPHOSPHATE] |  |  |  | 2 | 0.5 | 0.5 | 0.5 | 2 |
